Laboratory results taken from patent US12410391B2, “In vitro cell culture mucus systems” (The University of North Carolina at Chapel Hill, priority 2018, dated 2025).

System: human colonic epithelium (monolayer from human colonic stem cells)
Assay: VIP-stimulated water secretion into the apical reservoir under ALI culture
Assay type: cell-based
Description: The inserts were rinsed with PBS×1 prior to cell plating. Intestinal epithelial cells were passaged according to the procedure described above except that the cells were suspended in expansion medium (EM-Table 1) and plated directly onto the top compartment of Transwell inserts. Cells from 1 well of the 6-well plate were dispersed into 6 separate 12-well Transwell inserts (1 mL in the upper [apical] reservoir, and 2 mL in the lower [basal] reservoir). The medium was exchanged every 48 h. To induce cell differentiation and mucus production, the medium was switched to differentiation medium (DM-Table 1) after 5 days. In the submerged culture, 1 mL DM was added in the apical reservoir and 2 mL in the basal reservoir. The medium was exchanged every 48 h thereafter. In the ALI culture, the medium in the apical reservoir was completely aspirated, 1 mL DM or DM-VIP (DM containing 330 ng/mL VIP [AnaSpec, #AS-22872]) was added to the basal reservoir, and medium was exchanged every 24 h thereafter. By day 10, the system was suitable for characterization and cytokine assay.
To verify the function of VIP to stimulate water secretion, human colonic stem cells were cultured under EM for 5 days. At day 5, the basal medium was switched to DM with varying VIP concentration and the cells placed under the ALI culture conditions. After 24 h, the water accumulated in the apical reservoir was collected and weighed with an analytical balance. In the absence of VIP, the accumulation of water in the apical reservoir was not measurable. […] A plateau was reached when VIP concentration was >1 ng/mL. At this saturating concentration, approximately 42 mg/cm^2 water accumulated after a 24 h incubation with VIP, corresponding to a water depth in the reservoir of 420 μm.

Substance: vasoactive intestinal peptide [VIP]
- VIP concentration at which plateau of water secretion was reached (ALI culture, 24 h): > 1 ng/mL
- water accumulated in apical reservoir (saturating VIP concentration, 24 h incubation): approximately 42 mg/cm^2
- water depth in the reservoir (saturating VIP concentration, 24 h incubation, corresponds to the accumulated water): 420 μm
